Assay results as given in the supplement of paper PMC12317010.
Where a name gives a salt, the structure may show the parent alone.

Assay: collision cross section in nitrogen (drift tube, single-field); higher = larger gas-phase ion size
[1] = ion type: [M+Na], ion source: ESI, ion mode: Positive
[2] = ion type: [M+H], ion source: APCI, ion mode: Positive
[3] = ion type: [M+H], ion source: ESI, ion mode: Positive
[4] = ion type: [M-H], ion source: ESI, ion mode: Negative
[5] = ion type: [M+], ion source: APCI, ion mode: Positive
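Note: chemical standards at 10 µM analysed by drift tube IMS-QTOF MS in about 3.95 torr nitrogen, mean of duplicate injections differing ≤1%, mass error below 10 ppm.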

SMILES	collision cross section in nitrogen [1]	collision cross section in nitrogen [2]	collision cross section in nitrogen [3]	collision cross section in nitrogen [4]	also measured
c1cc(C(c2ccc(OCC3CO3)cc2)c2ccc(OCC3CO3)cc2)ccc1OCC1CO1 (stereo not given)	199.3 Å²	–	–	–	–
Nc1ncnc2[nH]cnc12 [Adenine]	–	124.4 Å²	125.2 Å²	120.9 Å²	–
C[C@@H]1CCN(C(=O)[C@H](CCCNC(=N)N)NS(=O)(=O)c2cccc3c2NC[C@H](C)C3)[C@@H](C(=O)O)C1 [Argatroban monohydrate]	221.7 Å²	–	217 Å²	207.8 Å²	–
CCCCCCCCC(CCCCCC)C(=O)O (stereo not given) [2-Hexyldecanoic acid]	–	–	–	176.7 Å²	–
CCOC(=O)c1cccc(O)c1 [Ethyl 3-hydroxybenzoate]	–	–	–	137.7 Å²	–
Cc1nc(-c2ccc(OCC(C)C)c(C#N)c2)sc1C(=O)O [Febuxostat]	–	–	183.6 Å²	–	–
Cc1ccc(S(=O)(=O)NC(=O)NN2CCCCCC2)cc1 [Tolazamide]	183.1 Å²	175.5 Å²	175.4 Å²	178.1 Å²	–
C[C@]12C=CC(=O)C=C1CC[C@@H]1[C@@H]2C(=O)C[C@@]2(C)[C@H]1CC[C@]2(O)C(=O)CO [Prednisone]	192.2 Å²	184.1 Å²	–	–	–
OC[C@H]1O[C@@H]2O[C@H]3[C@H](O)[C@@H](O)[C@@H](O[C@H]4[C@H](O)[C@@H](O)[C@@H](O[C@H]5[C@H](O)[C@@H](O)[C@@H](O[C@H]6[C@H](O)[C@@H](O)[C@@H](O[C@H]7[C@H](O)[C@@H](O)[C@@H](O[C@H]1[C@H](O)[C@H]2O)O[C@@H]7CO)O[C@@H]6CO)O[C@@H]5CO)O[C@@H]4CO)O[C@@H]3CO [alpha-Cyclodextrin]	278.5 Å²	–	277.8 Å²	286.4 Å²	–
COc1ccc(N=Nc2cc(C)c(N=Nc3ccc(S(=O)(=O)O)cc3)cc2OC)cc1 [C.I. Acid Orange 156]	–	–	219.7 Å²	231.2 Å²	–
O=C(NC(=O)c1c(F)cccc1F)Nc1cc(Cl)c(Oc2ncc(C(F)(F)F)cc2Cl)c(Cl)c1 [Chlorfluazuron]	225.6 Å²	–	221.8 Å²	224.4 Å²	–
O=C1NC(=O)C(c2ccccc2)(c2ccccc2)N1 [Diphenylhydantoin sodium]	–	–	–	160.6 Å²	–
CCCCSP(=O)(SCCCC)SCCCC [Tribufos]	194.4 Å²	177.5 Å²	177.2 Å²	–	–
COc1ccc(C(O)(c2cncnc2)C2CC2)cc1 (stereo not given) [Ancymidol]	–	164.3 Å²	164.2 Å²	–	–
CC(C)C(=O)OCC(C)(C)C(O)C(C)C (stereo not given) [Texanol]	161.4 Å²	–	–	–	–
O=C1C=CC(=O)N1c1ccc(Cc2ccc(N3C(=O)C=CC3=O)cc2)cc1 [Bismaleimide]	182.7 Å²	197.5 Å²	–	174.3 Å²	–
CNC(=O)N(C)c1nnc(C(C)(C)C)s1 [Tebuthiuron]	162.9 Å²	150.4 Å²	150.5 Å²	–	–
COc1ccc(OC)c(NC(=O)CC(C)=O)c1 [N-(2,5-Dimethoxyphenyl)-3-oxobutanamide]	159.2 Å²	–	–	154.4 Å²	–
CC(C)(C)c1cc(O)c(C(C)(C)C)cc1O [2,5-Di-tert-butylbenzene-1,4-diol]	–	–	–	–	collision cross section in nitrogen [5]: 155.1 Å²

SMILES	collision cross section in nitrogen [1]	collision cross section in nitrogen [2]	collision cross section in nitrogen [3]	collision cross section in nitrogen [4]	also measured
c1ccc2[nH]ccc2c1 [Indole]	–	–	–	119.5 Å²	–
NCc1cccc(C2CCN(C(=O)c3ccc(C#Cc4ccccc4F)o3)CC2)c1 [AVE5638]	–	192.1 Å²	192.4 Å²	–	–
CC(C)C(OC(=O)c1ccccc1)C(C)(C)COC(=O)c1ccccc1 (stereo not given) [2,2,4-Trimethylpentane-1,3-diyl dibenzoate]	194.6 Å²	–	–	–	–
CC[C@H](C)C(=O)O[C@H]1C[C@@H](C)C=C2C=C[C@H](C)[C@H](CC[C@@H]3C[C@@H](O)CC(=O)O3)[C@H]21 [Lovastatin]	203.9 Å²	–	–	–	–
CC(Cc1ccc(OCC(=O)O)cc1)NCC(O)c1csc(C(F)(F)F)n1 (stereo not given)	181.2 Å²	181.1 Å²	181.4 Å²	184.7 Å²	–
COS(=O)(=O)O [Sodium methyl sulfate]	–	–	–	113.1 Å²	–
CCN(CC)c1ccc(C(=C2C=CC(=[N+](CC)CC)C=C2)c2ccc(S(=O)(=O)O)cc2S(=O)(=O)[O-])cc1 [C.I. Acid Blue 1, sodium salt]	255.4 Å²	–	243 Å²	–	–
COc1ccc(C(=O)c2ccccc2O)c(O)c1 [2,2′-Dihydroxy-4-methoxybenzophenone]	–	–	–	153.6 Å²	–
CC(C)(C)c1ccc(CSc2cnn(C(C)(C)C)c(=O)c2Cl)cc1 [Pyridaben]	208.8 Å²	–	–	–	–
OC(c1ccc(Cl)cc1)(c1ccc(Cl)cc1)c1cccnc1 [Parinol]	–	183.7 Å²	183.1 Å²	177.2 Å²	–
O=C1OC(c2ccc(O)cc2)(c2ccc(O)cc2)c2ccccc21 [Phenolphthalein]	191.8 Å²	173.8 Å²	173.9 Å²	176.2 Å²	–
O=[N+]([O-])O [Ammonium nitrate]	–	–	–	104.5 Å²	–
CCOC(=O)CN[C@@H](C(=O)N1CC[C@H]1C(=O)NCc1ccc(/C(N)=N/O)cc1)C1CCCCC1 [Ximelagatran]	213 Å²	208.6 Å²	208.6 Å²	216.1 Å²	–
COc1cc2c(c(OC)c1OC)-c1ccc(OC)c(=O)cc1[C@@H](NC(C)=O)CC2 [Colchicine]	204.3 Å²	197 Å²	195.9 Å²	197.3 Å²	–
CCCOC(=O)c1cc(O)c(O)c(O)c1 [Gallic acid n-propyl ester]	–	–	–	146.5 Å²	–
CCN(CC)c1nc(C)cc(OP(=S)(OC)OC)n1 [Pirimiphos-methyl]	–	165.5 Å²	167.9 Å²	–	–
CCCCCCCCCCCCCCCCCC[N+](C)(C)C [N,N,N-Trimethyloctadecan-1-aminium chloride]	–	–	–	–	collision cross section in nitrogen (ion source: APCI, ion mode: Positive, ion type: [M]+ (permanent cation)): 200.2 Å²; collision cross section in nitrogen (ion source: ESI, ion mode: Positive, ion type: [M]+ (permanent cation)): 200.7 Å²
CCCCOCN(C(=O)CCl)c1c(CC)cccc1CC [Butachlor]	184.4 Å²	–	–	–	–
N#Cc1ccc(CC(=O)c2cccc(C(F)(F)F)c2)cc1 [4-{2-Oxo-2-[3-(trifluoromethyl)phenyl]ethyl}benzonitrile]	–	–	–	163 Å²	–

SMILES	collision cross section in nitrogen [1]	collision cross section in nitrogen [2]	collision cross section in nitrogen [3]	collision cross section in nitrogen [4]	also measured
COP(=S)(OC)Oc1ccc(SC)c(C)c1 [Fenthion]	166.3 Å²	–	161.6 Å²	–	–
CC1(C)[C@@H](O[C@H]2O[C@H](C(=O)O)[C@@H](O)[C@H](O)[C@H]2O[C@@H]2O[C@H](C(=O)O)[C@@H](O)[C@H](O)[C@H]2O)CC[C@]2(C)[C@H]3C(=O)C=C4[C@@H]5C[C@@](C)(C(=O)O)CC[C@]5(C)CC[C@@]4(C)[C@]3(C)CC[C@@H]12 [Glycyrrhizin]	296.2 Å²	–	288.9 Å²	281.7 Å²	–
CC(C)C1CCC(Cc2ccc(Cl)cc2)C1(O)Cn1cncn1 (stereo not given) [Ipconazole]	179.6 Å²	173.8 Å²	173.8 Å²	–	–
CCNc1nc(NCC)nc(SC)n1 [Simetryn]	–	149.6 Å²	149.5 Å²	–	–
Nc1ccc(Nc2ccccc2)cc1 [N-Phenyl-1,4-benzenediamine]	–	143.1 Å²	–	–	–
CCOC(=O)CC(SP(=S)(OC)OC)C(=O)OCC (stereo not given) [Malathion]	172.2 Å²	–	–	–	–
Cc1nc(N(C)C)nc(OC(=O)N(C)C)c1C [Pirimicarb]	164.2 Å²	152 Å²	156.4 Å²	–	–
NC(=O)N(O)[C@@H]1C=C[C@H](Oc2cccc(Oc3ccc(F)cc3)c2)C1	191.1 Å²	–	–	–	–
Cc1cccc(C(C)(C)C)c1O [2-tert-Butyl-6-methylphenol]	–	–	–	138.2 Å²	–
CC1=NN(c2ccc(C(=O)O)cc2)C(=O)C1 [4-(3-Methyl-5-oxo-4,5-dihydro-1H-pyrazol-1-yl)benzoic acid]	–	–	151.6 Å²	146.2 Å²	–
Cc1cc(CCC(=O)OCCOCCOCCOC(=O)CCc2cc(C)c(O)c(C(C)(C)C)c2)cc(C(C)(C)C)c1O	236.4 Å²	233.4 Å²	–	237.8 Å²	collision cross section in nitrogen [5]: 234.2 Å²
O=P1(N(CCCl)CCCl)NCCCO1 (stereo not given) [Cyclophosphamide monohydrate]	154.6 Å²	148 Å²	147.6 Å²	–	–
CCCCOC(=O)c1ccccc1C(=O)O [Monobutyl phthalate]	–	–	–	151.7 Å²	–
CCOc1cc([N+](=O)[O-])c(OCC)cc1N1CCOCC1 [4-(2,5-Diethoxy-4-nitrophenyl)morpholine]	–	173.1 Å²	173.2 Å²	–	–
C=CC(=O)OCCn1c(=O)n(CCOC(=O)C=C)c(=O)n(CCOC(=O)C=C)c1=O	184.5 Å²	–	–	–	–
CCCCCCCCOC(=O)c1ccccc1O [Octyl salicylate]	–	–	–	162.2 Å²	–
CCCCN(CCCC)C(=O)N(CCCC)CCCC [1,1,3,3-Tetrabutylurea]	194 Å²	177.3 Å²	177.9 Å²	–	–
CSc1nnc(C(C)(C)C)c(=O)[nH]1 [Metribuzin-DA]	161.3 Å²	144.2 Å²	145.2 Å²	144.8 Å²	–
